Test results reported in ChEMBL document CHEMBL5247647, “Phenothiazine-Based LSD1 Inhibitor Promotes T-Cell Killing Response of Gastric Cancer Cells” (J Med Chem, 2023).

Biological target: Lysine-specific histone demethylase 1A (Homo sapiens, UniProt O60341)
Assay: Inhibition of recombinant LSD1 (unknown origin) expressed in Escherichia coli BL21 (DE3) using H3K4me2 peptide as substrate incubated for 30 mins by fluorescence based microplate reader assay

| IC50 [nM] | Structure (SMILES) |
| --- | --- |
| 4710 | CN(C)CCCN1c2ccccc2Sc2ccccc21 [PROMAZINE] |
| 909 | CN1CCN(CCCN2c3ccccc3Sc3ccccc32)CC1 [PERAZINE] |
